This note sets out measurements from patent publication US8889699B2, “5-fluorouracil derivative” (Delta-Fly Pharma, Inc., priority 2009, dated 2014).

Read-outs that look alike come from different tables or passages of the source.

One may read the inhibition as the share of the control response that was lost under treatment. As a reminder, the IC50 is the point on the concentration scale where inhibition reaches its midpoint.

In this experiment the target is T1, DPD (Rattus norvegicus, UniProt O89000).
T1 construct: the obtained supernatant was used as a DPD enzyme solution or an OPRT enzyme solution; from tissue; host or cells: liver of 8-week old SD rat; 105,000 g supernatant of homogenate
T1 sequence (O89000 1-1025): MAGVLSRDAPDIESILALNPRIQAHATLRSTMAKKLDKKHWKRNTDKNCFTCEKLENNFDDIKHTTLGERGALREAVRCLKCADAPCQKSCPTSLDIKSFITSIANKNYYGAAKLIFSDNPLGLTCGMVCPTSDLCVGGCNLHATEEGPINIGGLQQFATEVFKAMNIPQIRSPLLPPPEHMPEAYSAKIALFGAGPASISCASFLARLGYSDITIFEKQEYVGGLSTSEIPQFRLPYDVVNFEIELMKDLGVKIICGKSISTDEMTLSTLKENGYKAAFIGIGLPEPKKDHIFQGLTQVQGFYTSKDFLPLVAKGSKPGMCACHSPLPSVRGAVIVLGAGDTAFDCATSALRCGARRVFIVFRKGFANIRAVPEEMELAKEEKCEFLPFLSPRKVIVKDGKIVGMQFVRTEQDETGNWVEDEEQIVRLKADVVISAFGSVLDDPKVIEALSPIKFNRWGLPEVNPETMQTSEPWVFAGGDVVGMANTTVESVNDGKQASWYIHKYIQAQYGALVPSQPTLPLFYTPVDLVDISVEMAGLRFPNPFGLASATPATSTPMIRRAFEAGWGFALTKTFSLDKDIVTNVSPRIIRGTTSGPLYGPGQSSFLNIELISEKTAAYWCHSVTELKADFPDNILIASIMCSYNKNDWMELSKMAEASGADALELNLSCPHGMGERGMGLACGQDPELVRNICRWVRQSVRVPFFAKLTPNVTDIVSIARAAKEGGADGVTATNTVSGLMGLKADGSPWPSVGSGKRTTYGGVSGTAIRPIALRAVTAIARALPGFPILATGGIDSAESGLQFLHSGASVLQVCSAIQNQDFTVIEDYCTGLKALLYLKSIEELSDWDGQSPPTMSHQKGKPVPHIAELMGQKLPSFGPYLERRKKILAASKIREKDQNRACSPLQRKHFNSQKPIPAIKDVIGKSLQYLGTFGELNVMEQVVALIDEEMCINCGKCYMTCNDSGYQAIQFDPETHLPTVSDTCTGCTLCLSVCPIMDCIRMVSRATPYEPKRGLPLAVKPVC
The experiment is described as follows: DPD inhibitory action in vitro (enzyme reaction, tritium-labeled 5-FU as substrate). In kind it is biochemical. Here is the method:
The resulting product was diluted to concentrations of 1 mM, 100 μM, 10 μM, and 1 μM with a 10 mM potassium phosphate buffer solution (pH 6.0), thereby obtaining Test Liquids 1. The obtained Test Liquids 1 were separately added to the enzyme reaction solution described below to give final concentrations of 200 μM, 20 μM, 2 μM, and 0.2 μM. • (b) Test liquid preparation (2): As a DPD inhibitor, 5-chloro-2,4-dihydroxypyridine (CDHP; gimeracil) was dissolved to a concentration of 10 mM in a 10 mM potassium phosphate buffer solution (pH 6.0). The resulting product was diluted to concentrations of 1 mM, 100 μM, 10 μM, and 1 μM, thereby obtaining Test Liquids 2. The obtained Test Liquids 2 were separately added to the enzyme reaction solution to give final concentrations of 200 μM, 20 μM, 2 μM, and 0.2 μM. • (c) Test liquid preparation (3): As an OPRT inhibitor, citrazinic acid (Citra. A.) was dissolved to a concentration of 10 mM in 20 mM trishydroxyaminomethane-hydrochloric buffer solution (pH 8.0). Thereafter, the resulting product was diluted to concentrations of 1 mM, 100 μM, and 10 μM with a 10 mM potassium phosphate buffer solution, thereby obtaining Test Liquids (3). The obtained Test Liquids 3 were separately added to the enzyme reaction solution to give final concentrations of 200 μM, 20 μM, and 2 μM. • (d) Preparation of enzyme solution: The liver of an 8-week old SD rat was used as a DPD enzyme source, while human tumor cells that had been transplanted into a nude mouse and proliferated therein were used as an OPRT enzyme source. Specifically, immediately after a rat liver or successively-transplanted human tumor cells were extracted, a 50-mM tris-hydrochloric acid buffer solution (pH 8.0) containing 0.25 M saccharose, 5 mM magnesium chloride, and 1 mM dithreitol was added thereto to a concentration of 25% (w/v) and homogenized. Thereafter, ultracentrifugation was performed at 105,000 g for 60 minutes, and the obtained supernatant was used as a DPD enzyme solution or an OPRT enzyme solution. • (e) Enzyme reaction: A DPD enzyme reaction was carried out in accordance with the method of Tatsumi et al. (Gann, 78: 748-755 (1987)) using 5-FU labeled with tritium as a substrate. An OPRT enzyme reaction was carried out in accordance with the method of Shirasaka et al. (Cancer Res., 53: 4004-4009 (1993)) using 5-FU labeled with tritium as a substrate. Then, the activity of a control group (with no test compound) and test compound groups was measured. The percent inhibition of the test compound relative to DPD or OPRT was calculated using the following formula: [1-(the enzyme activity with the test compound/the enzyme activity of the control group)]×100(%).
The resulting product was diluted to concentrations of 1 mM, 100 μM, 10 μM, and 1 μM with a 10 mM potassium phosphate buffer solution (pH 6.0), thereby obtaining Test Liquids 1. The obtained Test Liquids 1 were separately added to the enzyme reaction solution described below to give final concentrations of 200 μM, 20 μM, 2 μM, and 0.2 μM. • (b) Preparation of enzyme solution: The liver of an 8-week old SD rat was used as a DPD enzyme source, while human tumor cells that had been transplanted into a nude mouse and proliferated therein were used as an OPRT enzyme source. Specifically, immediately after a rat liver or successively-transplanted human tumor cells were extracted, a 50-mM tris-hydrochloric acid buffer solution (pH 8.0) containing 0.25 M saccharose, 5 mM magnesium chloride, and 1 mM dithreitol was added thereto to a concentration of 25% (w/v) and homogenized. Thereafter, ultracentrifugation was performed at 105,000 g for 60 minutes, and the obtained supernatant was used as a DPD enzyme solution or an OPRT enzyme solution. • (c) Enzyme reaction: A DPD enzyme reaction was carried out in accordance with the method of Tatsumi et al. (Gann, 78: 748-755 (1987)) using 5-FU labeled with tritium as a substrate. […]

Setting [1] is: 0.2 μM, Table 2, read-out: DPD Inhibition (%).
The mark [2] stands for this setting: 2 μM, Table 2, read-out: DPD Inhibition (%).

Take `CCOCn1cc(F)c(=O)n(C(=O)c2cccc(C(=O)Oc3cc(OC(=O)c4cc(O)nc(O)c4)c(Cl)cn3)c2)c1=O` [Compound I-2, 3-{3-[4-(2,6-dihydroxyisonicotinoyloxy)-5-chloro-2-pyridyloxycarbonyl]benzoyl}-1-ethoxymethyl-5-fluorouracil]: the “DPD Inhibitory Activity: Activity” value reads like this: (Conc. 0.2 μM, Table 1) 0.613 nmol/mL/min; (Conc. 2 μM, Table 1) 0.157 nmol/mL/min; (Conc. 20 μM, Table 1) 0.075 nmol/mL/min; (Conc. 200 μM, Table 1) 0.100 nmol/mL/min. The inhibition at 0.2 µM (Conc. 0.2 μM, Table 1, read-out: DPD Inhibitory Activity: Inhibition) came out at 39.2%. Also, under “Conc. 2 μM, Table 1, read-out: DPD Inhibitory Activity: Inhibition”, the inhibition at 2 µM was found to be 84.4%. The molecule also displayed an inhibition at 20 µM (Conc. 20 μM, Table 1) of 92.6%. The molecule further showed an inhibition at 200 µM (Conc. 200 μM, Table 1) of 90%.

For `CCOCn1cc(F)c(=O)n(C(=O)c2cccc(C(=O)Oc3cc(OC(=O)c4cc(OC(=O)C5CCCC5)nc(OC(=O)C5CCCC5)c4)c(Cl)cn3)c2)c1=O` [Compound I-9, 3-{3-[4-(2,6-dicyclopentanecarbonyloxyisonicotinoyloxy)-5-chloro-2-pyridyloxycarbonyl]benzoyl}-1-ethoxymethyl-5-fluorouracil], the inhibition at 0.2 µM under setting [1] was 45.7%. In addition, the inhibition at 2 µM under setting [2] turned out to be 74.6%.

Take `CCOCn1cc(F)c(=O)n(C(=O)c2cccc(C(=O)Oc3cc(OC(=O)c4cc(OC(C)=O)nc(OC(C)=O)c4)c(Cl)cn3)c2)c1=O` [Compound I-10, 3-{3-[4-(2,6-diacetyloxyisonicotinoyloxy)-5-chloro-2-pyridyloxycarbonyl]benzoyl}-1-ethoxymethyl-5-fluorouracil]: the inhibition at 0.2 µM under setting [1] worked out at 43.9%. Moreover, under setting [2], the inhibition at 2 µM is 77.2%.

As for `CCOCn1cc(F)c(=O)n(C(=O)c2cccc(C(=O)Oc3cc(OC(=O)c4cc(OC(=O)CC)nc(OC(=O)CC)c4)c(Cl)cn3)c2)c1=O` [Compound I-11, 3-{3-[4-(2,6-dipropionyloxyisonicotinoyloxy)-5-chloro-2-pyridyloxycarbonyl]benzoyl}-1-ethoxymethyl-5-fluorouracil], under “5-FU as substrate, Test Example 4, read-out: IC50 of DPD activity inhibition”, the IC50 was approximately 500 nM. For the same molecule, the “DPD Inhibitory Activity: Activity” value stood at 0.285 nmol/mL/min (Conc. 0.2 μM, Table 5); 0.216 nmol/mL/min (Conc. 2 μM, Table 5); 0.081 nmol/mL/min (Conc. 20 μM, Table 5). Besides, the inhibition at 0.2 µM (Conc. 0.2 μM, Table 5, read-out: DPD Inhibitory Activity: Inhibition) came to 56.8%. Also, the inhibition at 2 µM (Conc. 2 μM, Table 5, read-out: DPD Inhibitory Activity: Inhibition) was 67.2%. This molecule also had an inhibition at 20 µM (Conc. 20 μM, Table 5) of 87.7%.
